{"source": "patent US20090247570A1", "about": "“PHARMACEUTICALS” (Pfizer Inc, priority 2006, published 2009)", "key": {"CD4 cell count": {"tested_on": "CD4 cell count", "experiment": "Clinical trial: change from baseline in CD4 cell count (FACS) after 24 weeks", "type": "in vivo, human", "conditions": "for Mean change in CD4 count: from baseline", "excerpt": "(§1) (b) were infected with a non R5 tropic (CXCR4 using viral population) as determined by Monogram Bioscience Phenosense™ assay (WO 02/-99383; U.S. Pat. No. 5,837,464), or were of indeterminate tropism phenotype;\n(§2) The eligible patients were randomised into three groups based on the drug regimens they received.\n(§3) Group 3: optimised background therapy (as above) plus placebo.\n(§4) The mean of these measurements was taken to be the baseline measurement for each patient.\n(§5) After 24 weeks of treatment, the endpoints (as discussed below) were measured.\n(§6) (d) For each patient, the change from baseline in CD4 and CD8 cell count was measured.\n(§7) Cell count was measured by fluorescence activated cell sorting (FACS), which is a standard technique."}, "[1]": {"tested_on": "HIV-1 (CXCR4 using viral population)", "experiment": "Clinical trial: HIV-1 viral load after 24 weeks in treatment experienced patients infected with a CXCR4 using viral population", "type": "in vivo", "conditions": "for Mean VL reduction: after 24 weeks, change from baseline; for Treatment difference in VL reduction: 97.5% confidence interval printed in next row", "excerpt": "as §1\n(c) had been on a stable antiviral regimen for at least 4 weeks prior to randomisation:\n(e) (i) had at least three months previous antiretroviral experience with at least one agent from three of the four antiretroviral drug classes: NTRIs, NNRTIs, protease inhibitors and fusion inhibitors (i.e. were triple class experienced); or\n(ii) had documented resistance to members of two of the four antiretroviral drug classes (i.e. were dual class resistant).\nas §2, §3\nThese patients were distributed evenly among the 3 patient groups.\nas §4, §5\n(a) For each patient, the change from baseline in HIV-1 viral load (on a log[base10]scale) was measured.\n(b) The percentage of patients with fewer than (i) 400 and (ii) 50 HIV-1 RNA copies\\mL."}, "CD8 cell count": {"tested_on": "CD8 cell count", "experiment": "Clinical trial: change from baseline in CD8 cell count (FACS) after 24 weeks", "type": "in vivo, human", "conditions": "for Mean change in CD8 count: from baseline", "procedure": "as §1, §2, §3, §5, §6, §7"}, "[2]": {"conditions": "maraviroc both once and twice daily"}, "[3]": {"conditions": "once daily maraviroc + optimised regimen"}, "[4]": {"conditions": "twice daily maraviroc + optimised regimen"}, "[5]": {"conditions": "once daily maraviroc + optimised regimen, 24 weeks"}, "[6]": {"conditions": "twice daily maraviroc + optimised regimen, 24 weeks"}}}
{"substance": "(N-{(1S)-3-[3-isopropyl-5-methyl-4H-1,2,4-triazole-4-yl]-exo-8-azabicyclo[3.2.1]oct-8-yl}-1-phenylpropyl)-4,4-difluorocyclohexanecarboxamide [maraviroc]", "values": [{"measurement": "increase in CD4 cell count as compared to the placebo", "setting": "CD4 cell count; [2]", "value": "clinically meaningful (and statistically significant) increase"}, {"measurement": "mean CD4 change", "setting": "CD4 cell count; maraviroc once daily + OBT", "value": "+59.6 cells/μL"}, {"measurement": "mean CD4 change", "setting": "CD4 cell count; maraviroc twice daily + OBT", "value": "+62.2 cells/μL"}, {"measurement": "Mean change in CD4 count", "setting": "CD4 cell count; [3]", "value": "+59.6"}, {"measurement": "Mean change in CD4 count", "setting": "CD4 cell count; [4]", "value": "+62.4"}, {"measurement": "viral load change from baseline", "setting": "[1]; maraviroc once daily and twice daily groups, 24 weeks", "value": "−1.2", "unit": "log10"}, {"measurement": "Mean VL reduction", "setting": "[1]; once daily maraviroc 150 mg po (300 mg if OBT without PI or delavirdine) + optimised regimen", "value": "−0.91", "unit": "log10 copies/mL"}, {"measurement": "Treatment difference in VL reduction", "setting": "[1]; once daily maraviroc + optimised regimen vs placebo + optimised regimen, 24 weeks", "value": "+0.06 log10 copies/mL"}, {"measurement": ">0.5 log10 VL reduction (percentage of patients)", "setting": "[1]; [5]", "value": 42.1, "unit": "%"}, {"measurement": ">1 log10 VL reduction (percentage of patients)", "setting": "[1]; [5]", "value": 31.6, "unit": "%"}, {"measurement": "VL < 50 counts\\mL (percentage of patients)", "setting": "[1]; [5]", "value": 21.0, "unit": "%^"}, {"measurement": "VL < 400 counts/mL (percentage of patients)", "setting": "[1]; [5]", "value": 24.6, "unit": "%"}, {"measurement": "Mean VL reduction", "setting": "[1]; twice daily maraviroc 150 mg po (300 mg if OBT without PI or delavirdine) + optimised regimen", "value": "−1.20", "unit": "log10 copies/mL"}, {"measurement": "Treatment difference in VL reduction", "setting": "[1]; twice daily maraviroc + optimised regimen vs placebo + optimised regimen, 24 weeks", "value": "−0.23", "unit": "log10 copies/mL"}, {"measurement": ">0.5 log10 VL reduction (percentage of patients)", "setting": "[1]; [6]", "value": 48.1, "unit": "%"}, {"measurement": ">1 log10 VL reduction (percentage of patients)", "setting": "[1]; [6]", "value": 44.2, "unit": "%"}, {"measurement": "VL < 50 counts\\mL (percentage of patients)", "setting": "[1]; [6]", "value": 26.9, "unit": "%"}, {"measurement": "VL < 400 counts/mL (percentage of patients)", "setting": "[1]; [6]", "value": 30.8, "unit": "%"}, {"measurement": "increase in CD8 cell count as compared to the placebo", "setting": "CD8 cell count; [2]", "value": "clinically meaningful (and statistically significant) increase"}, {"measurement": "Mean CD8 cell change", "setting": "CD8 cell count; maraviroc once daily + OBT", "value": "+384.5 cells/μL"}, {"measurement": "Mean CD8 cell change", "setting": "CD8 cell count; maraviroc twice daily + OBT", "value": "+338.8 cells/μL"}, {"measurement": "Mean change in CD8 count", "setting": "CD8 cell count; [3]", "value": "+384.5"}, {"measurement": "Mean change in CD8 count", "setting": "CD8 cell count; [4]", "value": "+338.8"}]}
